Reference: ChEMBL document CHEMBL4507305, “Data for DCP probe TP-024” (2021)

Columns and labels:
[1] = molecular target: Serine/threonine-protein kinase 25 (Homo sapiens) (UniProt O00506); conditions: Compound concentration 1000.0 nM
[2] = molecular target: Sodium-dependent noradrenaline transporter (Homo sapiens) (UniProt P23975); conditions: Compound concentration 10.0 uM
[3] = molecular target: Mitogen-activated protein kinase 6 (Homo sapiens) (UniProt Q16659); conditions: Compound concentration 1000.0 nM
[4] = molecular target: Ephrin type-A receptor 4 (Homo sapiens) (UniProt P54764); conditions: Compound concentration 1000.0 nM
[5] = molecular target: Tyrosine-protein kinase HCK (Homo sapiens) (UniProt P08631); conditions: Compound concentration 1000.0 nM
[6] = test system: Phosphatidylinositol 4,5-bisphosphate 3-kinase catalytic subunit alpha isoform (Homo sapiens), P42336 [M1043I]; conditions: Compound concentration 1000.0 nM
[7] = test system: Proto-oncogene tyrosine-protein kinase receptor Ret (Homo sapiens), P07949 [M918T]; conditions: Compound concentration 1000.0 nM
[8] = molecular target: cGMP-dependent protein kinase 2 (Homo sapiens) (UniProt Q13237); conditions: Compound concentration 1000.0 nM
[9] = molecular target: Serine/threonine-protein kinase D2 (Homo sapiens) (UniProt Q9BZL6); conditions: Compound concentration 1000.0 nM
[10] = molecular target: Platelet-derived growth factor receptor beta (Homo sapiens) (UniProt P09619); conditions: Compound concentration 1000.0 nM
[11] = molecular target: Serine/threonine-protein kinase PAK 3 (Homo sapiens) (UniProt O75914); conditions: Compound concentration 1000.0 nM
[12] = molecular target: Phosphatidylinositol 3-kinase catalytic subunit type 3 (Homo sapiens) (UniProt Q8NEB9); conditions: Compound concentration 1000.0 nM
[13] = molecular target: Serine/threonine-protein kinase SIK3 (Homo sapiens) (UniProt Q9Y2K2); conditions: Compound concentration 1000.0 nM
[14] = molecular target: Receptor tyrosine-protein kinase erbB-4 (Homo sapiens) (UniProt Q15303); conditions: Compound concentration 1000.0 nM
[15] = molecular target: Serine/threonine-protein kinase PAK 1 (Homo sapiens) (UniProt Q13153); conditions: Compound concentration 1000.0 nM
[16] = molecular target: Mitogen-activated protein kinase kinase kinase kinase 4 (Homo sapiens) (UniProt O95819); conditions: Compound concentration 1000.0 nM
[17] = molecular target: Homeodomain-interacting protein kinase 3 (Homo sapiens) (UniProt Q9H422); conditions: Compound concentration 1000.0 nM
[18] = molecular target: Alpha-2C adrenergic receptor (Homo sapiens) (UniProt P18825); conditions: Compound concentration 10.0 uM
[19] = molecular target: Dual specificity protein kinase CLK3 (Homo sapiens) (UniProt P49761); conditions: Compound concentration 1000.0 nM
[20] = molecular target: Peripheral plasma membrane protein CASK (Homo sapiens) (UniProt O14936); conditions: Compound concentration 1000.0 nM
[21] = molecular target: Serine/threonine-protein kinase MARK1 (Homo sapiens) (UniProt Q9P0L2); conditions: Compound concentration 1000.0 nM
[22] = molecular target: Serine/threonine-protein kinase Sgk1 (Homo sapiens) (UniProt O00141); conditions: Compound concentration 1000.0 nM
[23] = molecular target: D(2) dopamine receptor (Homo sapiens) (UniProt P14416); conditions: Compound concentration 10.0 uM
[24] = test system: Mast/stem cell growth factor receptor Kit (Homo sapiens), P10721 [V559D]; conditions: Compound concentration 1000.0 nM
[25] = molecular target: Serine/threonine-protein kinase MAK (Homo sapiens) (UniProt P20794); conditions: Compound concentration 1000.0 nM
[26] = molecular target: Serine/threonine-protein kinase PAK 6 (Homo sapiens) (UniProt Q9NQU5); conditions: Compound concentration 1000.0 nM
[27] = molecular target: Calcium/calmodulin-dependent protein kinase type IV (Homo sapiens) (UniProt Q16566); conditions: Compound concentration 1000.0 nM
[28] = molecular target: Tyrosine-protein kinase ITK/TSK (Homo sapiens) (UniProt Q08881); conditions: Compound concentration 1000.0 nM
[29] = test system: Phosphatidylinositol 4,5-bisphosphate 3-kinase catalytic subunit alpha isoform (Homo sapiens), P42336 [E545K]; conditions: Compound concentration 1000.0 nM
[30] = molecular target: Homeodomain-interacting protein kinase 2 (Homo sapiens) (UniProt Q9H2X6); conditions: Compound concentration 1000.0 nM
[31] = test system: Tyrosine-protein kinase ABL1 (Homo sapiens), P00519 [F317L]; conditions: Compound concentration 1000.0 nM
[32] = molecular target: Serine/threonine-protein kinase BRSK1 (Homo sapiens) (UniProt Q8TDC3); conditions: Compound concentration 1000.0 nM
[33] = molecular target: Serine/threonine-protein kinase Nek5 (Homo sapiens) (UniProt Q6P3R8); conditions: Compound concentration 1000.0 nM
[34] = molecular target: ALK tyrosine kinase receptor (Homo sapiens) (UniProt Q9UM73); conditions: Compound concentration 1000.0 nM
[35] = molecular target: MAP kinase-activated protein kinase 5 (Homo sapiens) (UniProt Q8IW41); conditions: Compound concentration 1000.0 nM
[36] = molecular target: Angiopoietin-1 receptor (Homo sapiens) (UniProt Q02763); conditions: Compound concentration 1000.0 nM
[37] = test system: Epidermal growth factor receptor (Homo sapiens), P00533 [UNDEFINED MUTATION]; conditions: Compound concentration 1000.0 nM
[38] = molecular target: Rho-associated protein kinase 1 (Homo sapiens) (UniProt Q13464); conditions: Compound concentration 1000.0 nM
[39] = molecular target: Non-receptor tyrosine-protein kinase TYK2 (Homo sapiens) (UniProt P29597); conditions: Compound concentration 1000.0 nM
[40] = molecular target: Ribosomal protein S6 kinase beta-1 (Homo sapiens) (UniProt P23443); conditions: Compound concentration 1000.0 nM
[41] = molecular target: Mitogen-activated protein kinase kinase kinase 5 (Homo sapiens) (UniProt Q99683); conditions: Compound concentration 1000.0 nM
[42] = molecular target: Receptor-interacting serine/threonine-protein kinase 1 (Homo sapiens) (UniProt Q13546); conditions: Compound concentration 1000.0 nM
[43] = molecular target: Dual specificity protein kinase CLK4 (Homo sapiens) (UniProt Q9HAZ1); conditions: Compound concentration 1000.0 nM
[44] = test system: Receptor-type tyrosine-protein kinase FLT3 (Homo sapiens), P36888 [R834Q]; conditions: Compound concentration 1000.0 nM
[45] = molecular target: Muscarinic acetylcholine receptor M5 (Homo sapiens) (UniProt P08912); conditions: Compound concentration 10.0 uM

Sequence of Serine/threonine-protein kinase PAK 1 (Homo sapiens) (Q13153 whole entry): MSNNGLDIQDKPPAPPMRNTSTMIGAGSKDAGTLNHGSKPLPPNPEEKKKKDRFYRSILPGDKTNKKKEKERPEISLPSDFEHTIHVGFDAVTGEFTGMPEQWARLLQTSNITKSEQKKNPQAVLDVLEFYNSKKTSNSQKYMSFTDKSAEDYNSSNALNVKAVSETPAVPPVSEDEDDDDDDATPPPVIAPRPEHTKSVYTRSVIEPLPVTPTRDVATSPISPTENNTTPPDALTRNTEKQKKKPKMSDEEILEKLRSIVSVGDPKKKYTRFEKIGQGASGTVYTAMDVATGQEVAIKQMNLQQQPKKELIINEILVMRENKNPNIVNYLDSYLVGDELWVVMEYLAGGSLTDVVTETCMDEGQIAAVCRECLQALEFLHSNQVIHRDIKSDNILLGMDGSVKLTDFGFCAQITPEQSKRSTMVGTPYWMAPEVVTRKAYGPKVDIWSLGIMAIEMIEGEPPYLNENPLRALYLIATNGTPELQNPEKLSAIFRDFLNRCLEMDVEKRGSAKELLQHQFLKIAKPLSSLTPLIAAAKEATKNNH
Sequence of Phosphatidylinositol 4,5-bisphosphate 3-kinase catalytic subunit alpha isoform (Homo sapiens), P42336 [E545K] (P42336 whole entry E545K, canonical isoform): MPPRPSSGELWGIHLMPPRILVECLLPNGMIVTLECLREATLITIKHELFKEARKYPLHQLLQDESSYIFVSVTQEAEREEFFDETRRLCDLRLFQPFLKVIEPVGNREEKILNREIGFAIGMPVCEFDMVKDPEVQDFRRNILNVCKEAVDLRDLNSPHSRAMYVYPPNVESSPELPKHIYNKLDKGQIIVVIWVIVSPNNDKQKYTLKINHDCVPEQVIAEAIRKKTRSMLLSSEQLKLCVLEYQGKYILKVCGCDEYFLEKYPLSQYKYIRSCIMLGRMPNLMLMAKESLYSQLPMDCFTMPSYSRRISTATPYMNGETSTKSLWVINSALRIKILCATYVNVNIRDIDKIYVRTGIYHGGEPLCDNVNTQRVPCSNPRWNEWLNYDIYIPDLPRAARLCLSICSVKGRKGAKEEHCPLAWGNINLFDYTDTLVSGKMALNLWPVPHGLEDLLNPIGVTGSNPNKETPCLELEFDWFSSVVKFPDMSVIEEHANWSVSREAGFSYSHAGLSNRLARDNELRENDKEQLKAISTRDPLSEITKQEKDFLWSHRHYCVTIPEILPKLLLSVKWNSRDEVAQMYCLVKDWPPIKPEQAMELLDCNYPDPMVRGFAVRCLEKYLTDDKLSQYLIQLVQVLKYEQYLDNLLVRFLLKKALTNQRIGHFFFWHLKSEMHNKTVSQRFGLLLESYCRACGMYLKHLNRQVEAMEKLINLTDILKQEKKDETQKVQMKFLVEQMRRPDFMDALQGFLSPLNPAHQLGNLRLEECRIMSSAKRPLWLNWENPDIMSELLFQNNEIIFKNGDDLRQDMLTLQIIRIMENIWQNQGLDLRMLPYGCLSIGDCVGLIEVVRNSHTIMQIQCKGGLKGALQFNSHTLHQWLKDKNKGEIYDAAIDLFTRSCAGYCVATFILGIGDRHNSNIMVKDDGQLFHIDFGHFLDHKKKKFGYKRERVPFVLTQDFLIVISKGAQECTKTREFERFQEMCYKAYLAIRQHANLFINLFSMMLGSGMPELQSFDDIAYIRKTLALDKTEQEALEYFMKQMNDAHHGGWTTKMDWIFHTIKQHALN
Sequence of Receptor-interacting serine/threonine-protein kinase 1 (Homo sapiens) (Q13546 whole entry): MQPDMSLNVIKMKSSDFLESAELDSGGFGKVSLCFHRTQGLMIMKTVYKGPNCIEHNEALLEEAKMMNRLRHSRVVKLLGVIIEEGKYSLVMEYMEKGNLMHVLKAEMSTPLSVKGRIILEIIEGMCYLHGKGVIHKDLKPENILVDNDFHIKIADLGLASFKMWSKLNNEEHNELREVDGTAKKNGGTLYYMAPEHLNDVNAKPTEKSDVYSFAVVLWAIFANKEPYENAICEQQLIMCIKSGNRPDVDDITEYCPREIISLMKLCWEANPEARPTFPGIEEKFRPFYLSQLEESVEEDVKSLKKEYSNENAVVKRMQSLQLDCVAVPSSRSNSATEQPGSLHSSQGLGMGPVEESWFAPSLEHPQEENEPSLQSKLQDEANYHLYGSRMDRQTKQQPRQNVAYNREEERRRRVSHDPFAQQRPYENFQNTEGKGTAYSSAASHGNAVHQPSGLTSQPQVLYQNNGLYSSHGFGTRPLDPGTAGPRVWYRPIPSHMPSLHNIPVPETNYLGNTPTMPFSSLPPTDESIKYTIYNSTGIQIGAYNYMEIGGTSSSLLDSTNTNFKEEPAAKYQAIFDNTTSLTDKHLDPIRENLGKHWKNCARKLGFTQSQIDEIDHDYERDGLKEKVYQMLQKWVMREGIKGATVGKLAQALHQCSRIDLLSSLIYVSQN
Sequence of Dual specificity protein kinase CLK4 (Homo sapiens) (Q9HAZ1 whole entry, looked up): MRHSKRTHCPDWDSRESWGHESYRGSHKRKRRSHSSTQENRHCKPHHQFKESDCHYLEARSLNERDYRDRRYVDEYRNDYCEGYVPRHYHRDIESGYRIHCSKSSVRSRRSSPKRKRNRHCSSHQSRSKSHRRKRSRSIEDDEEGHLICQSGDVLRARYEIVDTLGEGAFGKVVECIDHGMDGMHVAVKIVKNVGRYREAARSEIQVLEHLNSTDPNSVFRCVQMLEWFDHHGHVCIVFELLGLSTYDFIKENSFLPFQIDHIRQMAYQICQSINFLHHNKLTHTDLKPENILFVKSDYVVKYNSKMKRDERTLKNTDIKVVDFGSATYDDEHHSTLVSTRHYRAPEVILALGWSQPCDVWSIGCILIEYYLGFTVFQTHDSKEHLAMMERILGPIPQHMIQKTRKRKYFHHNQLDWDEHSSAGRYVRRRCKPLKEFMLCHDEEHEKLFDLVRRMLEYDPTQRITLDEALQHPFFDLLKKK
Sequence of Sodium-dependent noradrenaline transporter (Homo sapiens) (P23975 whole entry): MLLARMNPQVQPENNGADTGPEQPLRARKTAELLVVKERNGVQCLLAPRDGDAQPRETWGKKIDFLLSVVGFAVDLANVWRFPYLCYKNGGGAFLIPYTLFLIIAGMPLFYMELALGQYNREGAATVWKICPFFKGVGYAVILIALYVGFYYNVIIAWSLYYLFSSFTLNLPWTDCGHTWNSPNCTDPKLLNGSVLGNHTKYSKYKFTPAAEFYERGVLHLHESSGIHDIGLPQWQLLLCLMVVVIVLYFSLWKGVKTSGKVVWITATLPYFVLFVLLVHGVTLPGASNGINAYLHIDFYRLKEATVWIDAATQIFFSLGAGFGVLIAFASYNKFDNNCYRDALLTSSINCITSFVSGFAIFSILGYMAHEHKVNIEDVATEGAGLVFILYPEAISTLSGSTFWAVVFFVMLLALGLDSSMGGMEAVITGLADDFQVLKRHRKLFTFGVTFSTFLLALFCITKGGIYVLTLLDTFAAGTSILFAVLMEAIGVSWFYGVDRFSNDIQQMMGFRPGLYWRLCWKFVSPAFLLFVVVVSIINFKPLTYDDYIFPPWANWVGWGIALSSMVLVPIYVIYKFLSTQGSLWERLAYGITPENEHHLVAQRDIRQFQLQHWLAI
Sequence of Angiopoietin-1 receptor (Homo sapiens) (Q02763 whole entry): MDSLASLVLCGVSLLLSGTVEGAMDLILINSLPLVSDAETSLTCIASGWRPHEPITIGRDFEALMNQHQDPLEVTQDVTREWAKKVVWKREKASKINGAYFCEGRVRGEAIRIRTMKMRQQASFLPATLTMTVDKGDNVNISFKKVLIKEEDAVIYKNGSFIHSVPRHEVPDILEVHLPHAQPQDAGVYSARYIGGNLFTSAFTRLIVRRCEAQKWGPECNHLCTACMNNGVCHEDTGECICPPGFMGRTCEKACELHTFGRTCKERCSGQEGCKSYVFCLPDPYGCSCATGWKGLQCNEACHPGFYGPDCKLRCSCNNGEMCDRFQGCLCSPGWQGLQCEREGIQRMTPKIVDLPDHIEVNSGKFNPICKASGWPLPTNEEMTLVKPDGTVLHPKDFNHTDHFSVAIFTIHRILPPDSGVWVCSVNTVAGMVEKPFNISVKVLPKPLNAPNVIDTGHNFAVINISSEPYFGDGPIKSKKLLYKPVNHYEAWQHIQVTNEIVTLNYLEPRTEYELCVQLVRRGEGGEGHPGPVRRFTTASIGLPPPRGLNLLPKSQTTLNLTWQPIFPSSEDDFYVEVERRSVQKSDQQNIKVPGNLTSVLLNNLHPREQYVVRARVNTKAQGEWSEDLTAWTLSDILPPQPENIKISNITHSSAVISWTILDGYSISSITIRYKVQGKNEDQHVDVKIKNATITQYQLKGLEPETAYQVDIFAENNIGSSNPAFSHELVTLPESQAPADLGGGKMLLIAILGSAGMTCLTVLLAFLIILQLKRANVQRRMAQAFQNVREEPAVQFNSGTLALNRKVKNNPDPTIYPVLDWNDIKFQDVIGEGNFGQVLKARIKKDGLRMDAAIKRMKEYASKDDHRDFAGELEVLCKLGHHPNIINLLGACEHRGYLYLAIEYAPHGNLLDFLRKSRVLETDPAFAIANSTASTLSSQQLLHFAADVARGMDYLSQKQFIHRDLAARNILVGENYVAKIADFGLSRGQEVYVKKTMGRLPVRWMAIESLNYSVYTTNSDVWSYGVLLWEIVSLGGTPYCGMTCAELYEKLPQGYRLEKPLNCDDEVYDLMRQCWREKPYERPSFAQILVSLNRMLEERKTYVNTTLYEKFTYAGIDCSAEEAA
Sequence of Ribosomal protein S6 kinase beta-1 (Homo sapiens) (P23443 whole entry, looked up): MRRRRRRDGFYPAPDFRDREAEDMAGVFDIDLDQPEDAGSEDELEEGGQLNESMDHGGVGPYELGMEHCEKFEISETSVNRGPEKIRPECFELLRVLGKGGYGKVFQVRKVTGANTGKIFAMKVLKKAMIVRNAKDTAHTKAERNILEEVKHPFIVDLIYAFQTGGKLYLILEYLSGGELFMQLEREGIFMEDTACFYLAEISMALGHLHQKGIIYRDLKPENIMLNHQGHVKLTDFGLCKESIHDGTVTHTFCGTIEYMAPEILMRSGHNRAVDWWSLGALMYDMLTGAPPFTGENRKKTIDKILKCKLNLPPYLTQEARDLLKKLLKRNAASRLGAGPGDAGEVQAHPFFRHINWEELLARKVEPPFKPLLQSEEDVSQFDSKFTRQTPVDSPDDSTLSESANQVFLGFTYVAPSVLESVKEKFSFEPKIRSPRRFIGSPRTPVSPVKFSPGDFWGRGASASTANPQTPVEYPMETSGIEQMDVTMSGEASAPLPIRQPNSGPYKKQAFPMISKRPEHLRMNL

Cc1cc(-n2nc(Cc3cc(F)cc(C(F)(F)F)c3)nc2C)ccc1C(N)=O [TP-024]
residual activity [1]: 89% | inhibition [2]: -6.7% | residual activity [3]: 100% | residual activity [4]: 96% | residual activity [5]: 100% | residual activity [6]: 95% | residual activity [7]: 100% | residual activity [8]: 86% | residual activity [9]: 94% | residual activity [10]: 98% | residual activity [11]: 100% | residual activity [12]: 100% | residual activity [13]: 83% | residual activity [14]: 67% | residual activity [15]: 95% | residual activity [16]: 100% | residual activity [17]: 100% | inhibition [18]: 9.76% | residual activity [19]: 94% | residual activity [20]: 100% | residual activity [21]: 100% | residual activity [22]: 100% | inhibition [23]: 0.68% | residual activity [24]: 83% | residual activity [25]: 100% | residual activity [26]: 100% | residual activity [27]: 100% | residual activity [28]: 93% | residual activity [29]: 71% | residual activity [30]: 100% | residual activity [31]: 100% | residual activity [32]: 100% | residual activity [33]: 77% | residual activity [34]: 100% | residual activity [35]: 100% | residual activity [36]: 92% | residual activity [37]: 100% | residual activity [38]: 100% | residual activity [39]: 100% | residual activity [40]: 100% | residual activity [41]: 100% | residual activity [42]: 90% | residual activity [43]: 96% | residual activity [44]: 77% | inhibition [45]: -2.07%

Cc1nc(Cc2cccc(C(F)(F)F)c2)sc1-c1ccc(C(N)=O)nc1 [TP-024n]
residual activity [1]: 88% | inhibition [2]: -8.77% | residual activity [3]: 100% | residual activity [4]: 100% | residual activity [5]: 100% | residual activity [6]: 15% | residual activity [7]: 95% | residual activity [8]: 84% | residual activity [9]: 76% | residual activity [10]: 92% | residual activity [11]: 100% | residual activity [12]: 100% | residual activity [13]: 75% | residual activity [14]: 74% | residual activity [15]: 84% | residual activity [16]: 80% | residual activity [17]: 100% | inhibition [18]: 8.38% | residual activity [19]: 85% | residual activity [20]: 85% | residual activity [21]: 90% | residual activity [22]: 100% | inhibition [23]: -5.26% | residual activity [24]: 100% | residual activity [25]: 81% | residual activity [26]: 92% | residual activity [27]: 100% | residual activity [28]: 100% | residual activity [29]: 77% | residual activity [30]: 100% | residual activity [31]: 93% | residual activity [32]: 100% | residual activity [33]: 35% | residual activity [34]: 99% | residual activity [35]: 100% | residual activity [36]: 80% | residual activity [37]: 0% | residual activity [38]: 69% | residual activity [39]: 100% | residual activity [40]: 83% | residual activity [41]: 100% | residual activity [42]: 91% | residual activity [43]: 83% | residual activity [44]: 92% | inhibition [45]: 11.2%
